Experiments:
[1] = concurrent administration of aliskiren and atorvastatin; cited from earlier work
[2] = Pharmacokinetic evaluation of aliskiren and atorvastatin in rats (animal test); assay type: in vivo; conditions: SD rats, oral, once a day for 8 days
Method: As an experiment to confirm the effects of the invention, an animal test was carried out as follows, in order to confirm the effects of conventional combined administration and inventive chronotherapeutic administration of pharmacologically active ingredients, aliskiren as a renin inhibitor and atorvastatin as an HMG-CoA reductase inhibitor.
1) Title: Pharmacokinetic evaluation of aliskiren and atorvastatin in a hypertensive animal model.
2) Object: It is intended to verify through the chronotherapeutic administration-based pharmacokinetic changes the fact that the problem of pharmacokinetic interaction between different drugs upon simultaneous administration of drug groups metabolized by the same hepatic enzyme can be solved by controlled release of the drugs.
1. Test group: Animals were grouped into two groups (n=6), a group receiving simultaneous administration of aliskiren/atorvastatin, and a group receiving chronotherapeutic administration of aliskiren/atorvastatin.
2. Administration route: Forced intragastric administration via an oral sonde.
3. […]
5. Administration volume: 5 mL/kg based on the body weight of animals measured on the day of administration. […]

[3] = cited from earlier work
[4] = test system: hepatic enzyme cytochrome P450; conditions: cited from earlier work
[5] = biological target: cytochrome P450 3A4 (Homo sapiens, UniProt P08684); conditions: in vitro experiments; cited from earlier work
cytochrome P450 3A4, sequence (P08684 whole entry, species assumed): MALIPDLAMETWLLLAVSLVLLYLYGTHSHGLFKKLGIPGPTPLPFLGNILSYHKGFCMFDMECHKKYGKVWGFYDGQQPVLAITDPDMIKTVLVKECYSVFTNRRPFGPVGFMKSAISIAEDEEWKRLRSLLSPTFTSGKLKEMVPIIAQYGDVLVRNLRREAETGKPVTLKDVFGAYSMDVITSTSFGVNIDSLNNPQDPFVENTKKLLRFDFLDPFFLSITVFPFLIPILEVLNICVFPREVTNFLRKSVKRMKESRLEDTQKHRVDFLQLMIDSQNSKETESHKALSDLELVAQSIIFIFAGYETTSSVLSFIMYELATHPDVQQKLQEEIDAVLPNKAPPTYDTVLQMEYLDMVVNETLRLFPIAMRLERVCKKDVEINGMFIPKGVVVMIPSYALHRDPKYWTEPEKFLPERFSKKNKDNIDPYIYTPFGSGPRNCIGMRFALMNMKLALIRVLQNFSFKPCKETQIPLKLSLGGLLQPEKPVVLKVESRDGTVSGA

COCCCOc1cc(C[C@@H](C[C@H](N)[C@@H](O)C[C@H](C(=O)NCC(C)(C)C(N)=O)C(C)C)C(C)C)ccc1OC [aliskiren, 2(S),4(S),5(S),7(S)-N-(3-amino-2,2-dimethyl-3-oxopropyl)-2,7-di(1-methylethyl)-4-hydroxy-5-amino-8-[4-methoxy-3-(3-methoxy-propoxy)phenyl]-octanamide]
increase in blood aliskiren level [1]: 50%
blood level of aliskiren compared to the single administration group ([2]; aliskiren 300 mg/kg and atorvastatin 80 mg/kg simultaneously): significant increase
blood aliskiren level compared to the single administration group ([2]; aliskiren 300 mg/kg given 4 hours after atorvastatin 80 mg/kg (chronotherapeutic)): equivalent to that of the single administration group
bioavailability ([3]; in vivo): ≤ 2%
half-life ([3]; in vivo): 24 h
decrease in bioavailability ([3]; when high-fat diet is ingested): 71%
decrease in peak blood level ([3]; when high-fat diet is ingested): 85%
inhibition or induction of hepatic enzyme cytochrome P450 [4]: does not inhibit or induce
metabolism by cytochrome P450 3A4 [5]: metabolized by cytochrome P450 3A4

CC(C)(C)S(=O)(=O)C[C@@H](Cc1ccccc1)C(=O)N[C@@H](Cc1cnc[nH]1)C(=O)N[C@@H](CC1CCCCC1)[C@@H](O)[C@@H](O)C1CC1 [remikiren]
bioavailability (in words) ([3]; in vivo): low
half-life (in words) ([3]; in vivo): short

CC(C)C[C@H](O)[C@H](O)[C@H](CC1CCCCC1)NC(=O)[C@H](Cc1cscn1)NC(=O)[C@H](Cc1ccccc1)CS(=O)(=O)N1CCN(C)CC1 [zankiren]
bioavailability (in words) ([3]; in vivo): low
half-life (in words) ([3]; in vivo): short

COc1ccc(C[C@H](NC(=O)CC(C)(C)N)C(=O)N[C@@H](Cc2cnc[nH]2)C(=O)N[C@@H](CC2CCCCC2)[C@@H](O)[C@@H](O)CC(C)C)cc1 [enalkiren]
bioavailability (in words) ([3]; in vivo): low
half-life (in words) ([3]; in vivo): short
